Data on 6 compounds can be found in paper PMC8875489, “Pharmaceutical and Safety Profile Evaluation of Novel Selenocompounds with Noteworthy Anticancer Activity” (Pharmaceutics, 2022).

Details of data set [1]: method as in PMID 28245633. The note with it: known selenocompounds; cited from earlier work.
On the set-up of data set [2]: method as in PMID 33260948. The following applies: cited from earlier work.
Data set [3] in a line: Water solubility of methylseleno-aspirin (literature). Format: physicochemical. The note with it: recalculated taking molecular weight into account. An excerpt: The low solubility was not a surprise: according to the literature, the majority of the synthetic organic selenocompounds are poorly soluble in water. […] (or 0.0568 g/L when taking its molecular weight into account). […] To improve the solubility of water-insoluble anticancer drug candidates, the use of solubilizers, such as surfactants, organic solvents, cyclodextrins, lipids, and pH modifiers, is a common approach. Even though lowly water-soluble drugs can become moderately soluble if a suitable amount of additives is used, the usage of the additives need to be kept below their toxicity rate. Moreover, the usage of solubilizers can cause drug instability and is limited due to undesirable effects.

≈ marks a conversion by molar mass, not a printed value. Where two headings read alike, the source gives them in different places.

For the compound `N[C@@H](CC[Se]CC[C@H](N)C(=O)O)C(=O)O` [L-selenohomolanthionine], in data set [1], the permeability was 2.5%.
As for `C[Se]CC[C@H](N)C(=O)O` [selenomethionine], in data set [1], the permeability is given as 12.4%.
As to `C[Se]C(=O)c1ccccc1OC(C)=O` [methylseleno-aspirin], the water solubility is 220 µM (≈ 56.6 µg/mL) in data set [2] and 56.8 µg/mL (≈ 221 µM) in data set [3].
On to `C[Se]C[C@H](N)C(=O)O` [methylselenocysteine], for which, in data set [1], the permeability was 17.2%.
As for `N[C@@H](C[Se][Se]C[C@H](N)C(=O)O)C(=O)O` [selenocystine], the permeability in data set [1] was 3.1%.
With `O=[Se](O)O` [selenite], in data set [1], the permeability was 3.4%.
